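All cell lines were grown in 96-well plates and treated with compound for 48 hours. GI50 marks 50% less growth. The concentration for full growth arrest is given as TGI.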
How the values were obtained:
Assay in all cases: inhibition of tumour cell growth, NCI panel, 48 h
SK-MEL-2 melanoma = tested on: SK-MEL-2 melanoma
COLO 205 colon = tested on: COLO 205 colon
SF-539 CNS = tested on: SF-539 CNS
OVCAR-3 ovarian = tested on: OVCAR-3 ovarian
SNB-75 CNS = tested on: SNB-75 CNS
MCF7 breast = tested on: MCF7 breast
ACHN renal = tested on: ACHN renal
SR leukemia = tested on: SR leukemia
RXF 393 renal = tested on: RXF 393 renal
HCT-116 colon = tested on: HCT-116 colon
HOP-62 NSCLC = tested on: HOP-62 NSCLC
TK-10 renal = tested on: TK-10 renal
U251 CNS = tested on: U251 CNS
SK-MEL-5 melanoma = tested on: SK-MEL-5 melanoma
SK-MEL-28 melanoma = tested on: SK-MEL-28 melanoma
HOP-92 NSCLC = tested on: HOP-92 NSCLC
NCI/ADR-RES ovarian = tested on: NCI/ADR-RES ovarian
MALME-3M melanoma = tested on: MALME-3M melanoma
LOX IMVI melanoma = tested on: LOX IMVI melanoma
EKVX NSCLC = tested on: EKVX NSCLC
BT-549 breast = tested on: BT-549 breast
NCI-H226 lung = tested on: NCI-H226 lung
SK-OV-3 ovarian = tested on: SK-OV-3 ovarian
UACC-62 melanoma = tested on: UACC-62 melanoma
CCRF-CEM leukemia = tested on: CCRF-CEM leukemia
T-47D breast = tested on: T-47D breast
MDA-MB-435 = tested on: MDA-MB-435
NCI-H460 lung = tested on: NCI-H460 lung
HS 578T breast = tested on: HS 578T breast
CAKI-1 renal = tested on: CAKI-1 renal
OVCAR-4 ovarian = tested on: OVCAR-4 ovarian
DU-145 prostate = tested on: DU-145 prostate
MDA-MB-231 breast = tested on: MDA-MB-231 breast
A549 NSCLC = tested on: A549 NSCLC
HCT-15 colon = tested on: HCT-15 colon
HL-60(TB) leukemia = tested on: HL-60(TB) leukemia
OVCAR-5 ovarian = tested on: OVCAR-5 ovarian
UO-31 renal = tested on: UO-31 renal
HCC-2998 colon = tested on: HCC-2998 colon
OVCAR-8 ovarian = tested on: OVCAR-8 ovarian
786-0 renal = tested on: 786-0 renal
SW-620 colon = tested on: SW-620 colon
PC-3 prostate = tested on: PC-3 prostate
SF-295 CNS = tested on: SF-295 CNS
UACC-257 melanoma = tested on: UACC-257 melanoma
K-562 leukemia = tested on: K-562 leukemia
KM12 colon = tested on: KM12 colon
SF-268 CNS = tested on: SF-268 CNS
IGROV1 ovarian = tested on: IGROV1 ovarian
M14 melanoma = tested on: M14 melanoma
HT29 colon = tested on: HT29 colon
RPMI-8226 leukemia = tested on: RPMI-8226 leukemia
NCI-H522 lung = tested on: NCI-H522 lung
A498 renal = tested on: A498 renal
SNB-19 CNS = tested on: SNB-19 CNS

Work on Cc1ccc2c(n1)C(=O)C(Cl)=C(Nc1ccccc1C(=O)OC(C)(C)C)C2=O yielded a GI50 (SK-MEL-2 melanoma) of 2.27 µM, a TGI (SK-MEL-2 melanoma) of 6.78 µM and a GI50 (COLO 205 colon) of 1.77 µM. The TGI (COLO 205 colon) was 3.48 µM, the GI50 (SF-539 CNS) was 1.7 µM and the TGI (SF-539 CNS) was 3.18 µM. The GI50 (OVCAR-3 ovarian) was 1.31 µM, the TGI (OVCAR-3 ovarian) was 2.96 µM and the GI50 (SNB-75 CNS) was 14.7 µM. The TGI (SNB-75 CNS) was greater than 100 µM, the GI50 (MCF7 breast) was 0.813 µM and the TGI (MCF7 breast) was 3.58 µM. The GI50 (ACHN renal) was 1.75 µM, the TGI (ACHN renal) was 3.14 µM and the GI50 (SR leukemia) was 0.442 µM. The TGI (SR leukemia) was 7.86 µM, the GI50 (RXF 393 renal) was 1.62 µM and the TGI (RXF 393 renal) was 2.99 µM. For the same compound, the GI50 (HCT-116 colon) was 1.61 µM, the TGI (HCT-116 colon) was 3.15 µM and the GI50 (HOP-62 NSCLC) was 3.59 µM. The TGI (HOP-62 NSCLC) was 18.3 µM, the GI50 (TK-10 renal) was 1.81 µM and the TGI (TK-10 renal) was 3.28 µM. It also gave a GI50 (U251 CNS) of 2.42 µM, a TGI (U251 CNS) of 6.81 µM and a GI50 (SK-MEL-5 melanoma) of 1.59 µM. The TGI (SK-MEL-5 melanoma) was 2.98 µM, the GI50 (SK-MEL-28 melanoma) was 1.66 µM and the TGI (SK-MEL-28 melanoma) was 3.12 µM. For the same compound, the GI50 (HOP-92 NSCLC) was 1.53 µM, the TGI (HOP-92 NSCLC) was 2.89 µM and the GI50 (NCI/ADR-RES ovarian) was 2.17 µM. For the same compound, the TGI (NCI/ADR-RES ovarian) was 5.35 µM, the GI50 (MALME-3M melanoma) was 1.66 µM and the TGI (MALME-3M melanoma) was 3.27 µM. The GI50 (LOX IMVI melanoma) was 1.02 µM, the TGI (LOX IMVI melanoma) was 2.31 µM and the GI50 (EKVX NSCLC) was 1.59 µM. It also gave a TGI (EKVX NSCLC) of 3.01 µM, a GI50 (BT-549 breast) of 2.9 µM and a TGI (BT-549 breast) of 9.04 µM. For the same compound, the GI50 (NCI-H226 lung) was 6.77 µM, the TGI (NCI-H226 lung) was greater than 100 µM and the GI50 (SK-OV-3 ovarian) was greater than 100 µM. The TGI (SK-OV-3 ovarian) was greater than 100 µM, the GI50 (UACC-62 melanoma) was 1.82 µM and the TGI (UACC-62 melanoma) was 3.98 µM. For the same compound, the GI50 (CCRF-CEM leukemia) was 0.425 µM, the TGI (CCRF-CEM leukemia) was greater than 100 µM and the GI50 (T-47D breast) was 1.84 µM. The TGI (T-47D breast) was 4.91 µM, the GI50 (MDA-MB-435) was 1.71 µM and the TGI (MDA-MB-435) was 3.19 µM. The GI50 (NCI-H460 lung) was 3.08 µM, the TGI (NCI-H460 lung) was 11.3 µM and the GI50 (HS 578T breast) was 2.39 µM. The TGI (HS 578T breast) was 7.54 µM, the GI50 (CAKI-1 renal) was 1.55 µM and the TGI (CAKI-1 renal) was 2.9 µM. It also gave a GI50 (OVCAR-4 ovarian) of 1.4 µM, a TGI (OVCAR-4 ovarian) of 2.78 µM and a GI50 (DU-145 prostate) of 1.77 µM. The TGI (DU-145 prostate) was 3.32 µM, the GI50 (MDA-MB-231 breast) was 1.58 µM and the TGI (MDA-MB-231 breast) was 3.26 µM. For the same compound, the GI50 (A549 NSCLC) was 44.5 µM, the TGI (A549 NSCLC) was greater than 100 µM and the GI50 (HCT-15 colon) was 1.37 µM. The TGI (HCT-15 colon) was 3.32 µM, the GI50 (HL-60(TB) leukemia) was 0.394 µM and the TGI (HL-60(TB) leukemia) was 1.9 µM. The GI50 (OVCAR-5 ovarian) was 2.05 µM, the TGI (OVCAR-5 ovarian) was 4.1 µM and the GI50 (UO-31 renal) was 1.42 µM. For the same compound, the TGI (UO-31 renal) was 2.74 µM, the GI50 (HCC-2998 colon) was 1.75 µM and the TGI (HCC-2998 colon) was 3.27 µM. It also gave a GI50 (OVCAR-8 ovarian) of 2.83 µM, a TGI (OVCAR-8 ovarian) of 9.32 µM and a GI50 (786-0 renal) of 1.69 µM. The TGI (786-0 renal) was 3.22 µM, the GI50 (SW-620 colon) was 1.84 µM and the TGI (SW-620 colon) was 6.26 µM. The GI50 (PC-3 prostate) was 1.78 µM, the TGI (PC-3 prostate) was 4.19 µM and the GI50 (SF-295 CNS) was 4.25 µM. For the same compound, the TGI (SF-295 CNS) was 22.5 µM, the GI50 (UACC-257 melanoma) was 1.69 µM and the TGI (UACC-257 melanoma) was 3.3 µM. It also gave a GI50 (K-562 leukemia) of 0.549 µM, a TGI (K-562 leukemia) greater than 100 µM and a GI50 (KM12 colon) of 6.07 µM. The TGI (KM12 colon) was 50.4 µM, the GI50 (SF-268 CNS) was 3.06 µM and the TGI (SF-268 CNS) was 14.7 µM. The GI50 (IGROV1 ovarian) was 1.73 µM, the TGI (IGROV1 ovarian) was 3.43 µM and the GI50 (M14 melanoma) was 1.73 µM. The TGI (M14 melanoma) was 3.38 µM, the GI50 (HT29 colon) was 2.94 µM and the TGI (HT29 colon) was 8.52 µM. For the same compound, the GI50 (RPMI-8226 leukemia) was 1.78 µM, the TGI (RPMI-8226 leukemia) was 5.9 µM and the GI50 (NCI-H522 lung) was 1.83 µM. The TGI (NCI-H522 lung) was 3.86 µM, the GI50 (A498 renal) was 12.4 µM and the TGI (A498 renal) was 47.8 µM. It also gave a GI50 (SNB-19 CNS) of 3.3 µM and a TGI (SNB-19 CNS) of 15.4 µM.

From PubChem BioAssay (NCI)
